A value given as a limit tells only on which side of the number the result lay.

By Ki is commonly meant a dissociation constant, usually derived from enzyme kinetics or from competition with a known ligand.

For assay [1], the system named is porcine trabecular meshwork (PTM) cells. Briefly: Cell-based porcine trabecular meshwork (PTM) assay, actin-fiber length. Particulars: activity at 50 μM as compared to control. Further details: key: +++: More active than control-; ++: As active as control; +: Less active than control; −: Inactive. The procedure:
Cell-based porcine trabecular meshwork (PTM) assay.
The anterior section of porcine eyes was harvested within 4 hours post-mortem. The iris and ciliary body were removed and trabecular meshwork cells were harvested by blunt dissection. Finely minced trabecular meshwork tissue was plated into collagen-coated 6-well plates in Medium-199 containing 20% fetal bovine serum (FBS). After two passages at confluence, cells were transferred to low-glucose DMEM containing 10% FBS. Cells were used between […].
Cells were plated into fibronectin-coated, glass multiwell plates the day before compound testing under standard culture conditions. Compounds were added to cells in the presence of 1% FBS-containing DMEM and 1% DMSO. When compounds were incubated with the cells for the duration determined to be optimal, the media and compound is removed and cells fixed for 20 minutes in 3% methanol-free paraformaldehyde. Cells were rinsed twice with phosphate buffered saline (PBS) and cells are permeabilized with 0.5% Triton X-100 for two minutes. Following an additional two washes with PBS, F-actin was stained with Alexa-fluor 488-labelled phalloidin and nuclei are stained with DAPI.
Data was reduced to the mean straight actin-fiber length and normalized to DMSO-treated control cells (100%) and 50 μM Y-27632 (0%). Y-27632 is a rho-kinase inhibitor known to result in the depolymerization of F-actin in these cells.
The cellular assay described in Reference Example Two was used to test some of the foregoing Examples 1-101, the results of which are presented below. The results are provided in terms activity at 50 μM as compared to control

For another assay, the target named is GRK-6 (Homo sapiens, UniProt P43250). Briefly: luciferase-based biochemical kinase inhibition assay, GRK-6. Particulars: same luciferase assay; read-out: GRK-6 inhibition, Ki class. As to the method: (§1) The inhibition of G-protein-coupled receptor kinases including hGRK-2 was determined for the hydrazide compounds using a biochemical assay. The inhibition of GRK-3, GRK-5 and GRK-6 was also determined using the same assay for some of the hydrazide derivatives.
GRK-6, sequence (P43250 whole entry, species assumed): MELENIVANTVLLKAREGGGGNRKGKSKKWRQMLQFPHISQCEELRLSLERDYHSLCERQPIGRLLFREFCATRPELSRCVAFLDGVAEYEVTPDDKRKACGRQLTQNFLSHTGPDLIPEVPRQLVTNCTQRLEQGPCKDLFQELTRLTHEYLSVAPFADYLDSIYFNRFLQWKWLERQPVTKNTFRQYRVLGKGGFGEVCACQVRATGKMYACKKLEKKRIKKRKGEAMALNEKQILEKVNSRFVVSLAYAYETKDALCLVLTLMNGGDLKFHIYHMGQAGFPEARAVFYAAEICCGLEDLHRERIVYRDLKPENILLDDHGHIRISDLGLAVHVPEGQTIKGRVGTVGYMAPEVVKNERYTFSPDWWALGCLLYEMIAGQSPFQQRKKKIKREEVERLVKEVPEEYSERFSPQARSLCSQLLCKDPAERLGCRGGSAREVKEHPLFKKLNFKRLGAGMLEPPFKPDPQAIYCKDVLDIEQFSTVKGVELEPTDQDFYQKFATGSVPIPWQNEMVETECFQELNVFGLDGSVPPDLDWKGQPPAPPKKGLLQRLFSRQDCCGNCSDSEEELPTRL
(§2) The protein kinase inhibition was determined using a biochemical assay utilizing the light emission of a luciferase reaction. The luciferase-based assay operates on the following reaction principles: [drawing 10]
(§3) An inhibitor of GRK-2 will increase in the amount of ATP in solution, as shown. Thus, an inhibitor of GRK-2 will drive the luciferase reaction to the right, resulting in more light emitted. The amount of light emitted is proportional to the inhibition resulting from the GRK-2 inhibitor. The luciferase-based assay was also used to test some of the hydrazides for the inhibition properties towards other kinases.

A further assay addresses T1, GRK-3 (Homo sapiens, UniProt P35626).
T1 sequence (P35626 1-688): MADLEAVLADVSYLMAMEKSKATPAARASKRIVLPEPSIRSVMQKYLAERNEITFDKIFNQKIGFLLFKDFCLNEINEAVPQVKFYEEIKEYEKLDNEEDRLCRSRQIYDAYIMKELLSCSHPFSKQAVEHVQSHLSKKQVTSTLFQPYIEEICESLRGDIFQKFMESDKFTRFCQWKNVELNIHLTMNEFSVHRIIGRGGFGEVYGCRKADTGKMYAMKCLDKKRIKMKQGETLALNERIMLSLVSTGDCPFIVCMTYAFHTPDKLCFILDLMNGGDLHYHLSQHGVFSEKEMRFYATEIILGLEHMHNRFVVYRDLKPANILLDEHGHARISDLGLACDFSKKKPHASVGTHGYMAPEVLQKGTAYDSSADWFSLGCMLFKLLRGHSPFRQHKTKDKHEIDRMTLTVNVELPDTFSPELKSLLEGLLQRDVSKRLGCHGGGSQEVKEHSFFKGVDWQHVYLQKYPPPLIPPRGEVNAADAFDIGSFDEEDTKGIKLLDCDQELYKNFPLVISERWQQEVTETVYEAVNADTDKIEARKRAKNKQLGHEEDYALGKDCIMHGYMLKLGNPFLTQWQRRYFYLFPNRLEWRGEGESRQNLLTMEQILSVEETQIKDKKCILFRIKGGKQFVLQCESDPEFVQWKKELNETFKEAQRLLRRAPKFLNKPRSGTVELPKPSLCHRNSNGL
Briefly: luciferase-based biochemical kinase inhibition assay, GRK-3. The following applies: same luciferase assay; read-out: GRK-3 inhibition, Ki class. As to the method:
as §1, §2, §3

The target of another assay is T2, hGRK-2 (Homo sapiens, UniProt P25098).
T2 sequence (P25098 1-689): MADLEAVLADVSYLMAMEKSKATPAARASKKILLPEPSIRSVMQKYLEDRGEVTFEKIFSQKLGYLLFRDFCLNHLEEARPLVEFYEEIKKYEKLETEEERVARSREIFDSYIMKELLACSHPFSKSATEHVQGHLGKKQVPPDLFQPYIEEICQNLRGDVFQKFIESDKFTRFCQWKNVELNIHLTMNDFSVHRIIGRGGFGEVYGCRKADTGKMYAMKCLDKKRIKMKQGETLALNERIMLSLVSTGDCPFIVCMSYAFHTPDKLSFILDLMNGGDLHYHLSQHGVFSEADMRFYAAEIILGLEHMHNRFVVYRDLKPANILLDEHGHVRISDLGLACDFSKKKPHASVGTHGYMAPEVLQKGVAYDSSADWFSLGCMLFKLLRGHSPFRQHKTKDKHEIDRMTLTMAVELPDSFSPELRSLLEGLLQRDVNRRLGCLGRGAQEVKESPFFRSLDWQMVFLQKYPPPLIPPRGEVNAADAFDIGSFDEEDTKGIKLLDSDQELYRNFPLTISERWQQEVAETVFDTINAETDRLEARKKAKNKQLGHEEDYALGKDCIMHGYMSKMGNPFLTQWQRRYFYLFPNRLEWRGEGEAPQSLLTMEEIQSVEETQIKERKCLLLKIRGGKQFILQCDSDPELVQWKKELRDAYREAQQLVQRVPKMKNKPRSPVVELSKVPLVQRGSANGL
The assay is described as follows: luciferase-based (Kinase-Glo) biochemical kinase inhibition assay, hGRK-2. Particulars: luciferase assay, casein substrate, 10 μM ATP; read-out: GRK-2 inhibition, Ki class. In outline: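 Final conditions: 50 nM hGRK2, 20 μM casein, 10 μM ATP and 50 μM test compound in 4.5% DMSO, in HEPES pH 7.5 buffer with MgCl2, orthovanadate, CHAPS, BSA and DTT. Incubation ran 90-120 min at room temperature, targeting 20-30% ATP consumption. Remaining ATP was read by luminescence with diluted Kinase-Glo containing 0.01% trypan blue.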
On the technique in general: Kinase-Glo measures the ATP left after a reaction by luminescence.

Another assay concerns the target GRK-5 (Homo sapiens, UniProt P34947). Briefly: luciferase-based biochemical kinase inhibition assay, GRK-5. The following applies: same luciferase assay; read-out: GRK-5 inhibition, Ki class. The procedure:
The inhibition of G-protein-coupled receptor kinases including hGRK-2 was determined for the hydrazide compounds using a biochemical assay. […] The inhibition of GRK-3, GRK-5 and GRK-6 was also determined using the same assay for some of the hydrazide derivatives.
as §2, §3

GRK-5, sequence (P34947 whole entry, species assumed): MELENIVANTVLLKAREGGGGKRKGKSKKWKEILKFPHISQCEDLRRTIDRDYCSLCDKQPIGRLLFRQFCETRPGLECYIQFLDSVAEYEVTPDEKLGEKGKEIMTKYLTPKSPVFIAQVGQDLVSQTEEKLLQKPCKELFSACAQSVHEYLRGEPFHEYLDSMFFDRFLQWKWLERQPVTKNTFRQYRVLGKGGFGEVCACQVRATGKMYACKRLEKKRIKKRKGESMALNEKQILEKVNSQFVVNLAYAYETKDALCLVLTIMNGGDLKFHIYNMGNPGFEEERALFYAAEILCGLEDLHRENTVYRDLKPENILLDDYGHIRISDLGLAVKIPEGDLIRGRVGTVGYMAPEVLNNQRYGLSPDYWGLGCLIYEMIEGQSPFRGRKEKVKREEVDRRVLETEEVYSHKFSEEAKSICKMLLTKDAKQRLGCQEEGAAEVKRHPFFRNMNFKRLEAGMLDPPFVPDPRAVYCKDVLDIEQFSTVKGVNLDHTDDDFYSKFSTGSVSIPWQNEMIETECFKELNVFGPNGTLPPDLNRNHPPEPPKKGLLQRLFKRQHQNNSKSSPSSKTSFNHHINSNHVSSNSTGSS

In the case of `O=C(CNc1ccc(Oc2ccccc2)cc1)N/N=C/c1c(Cl)cncc1Cl`, in assay [1], the “PTM Cell Assay Result” value is given as “+”.

With `COc1cc(/C=N/NC(=O)CNc2cccc(Cl)c2)nc(OC)n1`, the “PTM Cell Assay Result” value in assay [1] is “+”.

As for `COc1ccc(Oc2cccc(NCC(=O)N/N=C/c3ccncc3)c2)cc1`, the “PTM Cell Assay Result” value in assay [1] is given as “+”.

`COc1cccc(NCC(=O)N/N=C/c2c(Cl)cncc2Cl)c1` [Example 5, (3-Methoxy-phenylamino)-acetic acid [1-(3,5-dichloro-pyridin-4-yl)-meth-(E)-ylidene]-hydrazide]: the Ki was over 10000 nM on GRK-6, 10 to 100 nM on GRK-3 and 10 to 100 nM on hGRK-2.

As to `CCOc1cccc(NCC(=O)N/N=C/c2c(Cl)cncc2Cl)c1` [Example 21, (3-Ethoxy-phenylamino)-acetic acid [1-(3,5-dichloro-pyridin-4-yl)-meth-(E)-ylidene]-hydrazide], the Ki on GRK-3 is over 10000 nM; on GRK-5, over 10000 nM; at hGRK-2, 100 to 1000 nM.

For the molecule `NS(=O)(=O)c1cccc(NCC(=O)N/N=C/c2c(Cl)cncc2Cl)c1` [Example 22, 3-{[1-(3,5-Dichloro-pyridin-4-yl)-meth-(E)-ylidene-hydrazinocarbonylmethyl]-amino}-benzenesulfonamide], the Ki fell in the range of 1000 to 10000 nM at GRK-3, 1000 to 10000 nM at GRK-5 and 100 to 1000 nM at hGRK-2.

Take `O=C(CNc1cccc(Cl)c1)N/N=C/c1ccncc1` [Example 37, (3-Chloro-phenylamino)-acetic acid [1-pyridin-4-yl-meth-(E)-ylidene]-hydrazide]: the Ki on GRK-3 was 1000 to 10000 nM; at GRK-5 it was over 10000 nM; on hGRK-2, 100 to 1000 nM.

Turning to `O=C(CNc1cccc(F)c1)N/N=C/c1ccncc1` [Example 40, (3-Fluoro-phenylamino)-acetic acid [1-pyridin-4-yl-meth-(E)-ylidene]-hydrazide], the Ki on GRK-3 was 1000 to 10000 nM; at GRK-5, over 10000 nM; at hGRK-2, 100 to 1000 nM.

In the case of `O=C(CNc1cccc(OCc2ccccc2)c1)N/N=C/c1ccncc1` [Example 47, (3-Benzyloxy-phenylamino)-acetic acid [1-pyridin-4-yl-meth-(E)-ylidene]-hydrazide], the Ki on GRK-3 lay within 100 to 1000 nM; at GRK-5 it was 1000 to 10000 nM; at hGRK-2, 100 to 1000 nM.

For `CSc1cccc(NCC(=O)N/N=C/c2ccncc2)c1` [Example 48, (3-Methylsulfanyl-phenylamino)-acetic acid [1-pyridin-4-yl-meth-(E)-ylidene]-hydrazide], the Ki on GRK-3 is 100 to 1000 nM; on GRK-5, over 10000 nM; at hGRK-2, 100 to 1000 nM.

`CNC(=O)c1cccc(NCC(=O)N/N=C/c2ccncc2)c1` [Example 52, N-Methyl-3-{[1-pyridin-4-yl-meth-(E)-ylidene-hydrazinocarbonylmethyl]-amino}-benzamide]: the results for the inhibitory constant (Ki) on GRK-3, on GRK-5 and on hGRK-2 were 100 to 1000 nM, over 10000 nM and 100 to 1000 nM, respectively.

Regarding `NS(=O)(=O)c1cccc(NCC(=O)N/N=C/c2ccncc2)c1` [Example 63, 3-{[1-Pyridin-4-yl-meth-(E)-ylidene-hydrazinocarbonylmethyl]-amino}-benzenesulfonamide], the Ki on GRK-3 was 1000 to 10000 nM; on GRK-5, over 10000 nM; at hGRK-2 it was 100 to 1000 nM.

Take `C/C(=N\NC(=O)CNc1cccc(OCc2ccccc2)c1)c1ccncc1` [Example 87, (3-Benzyloxy-phenylamino)-acetic acid [1-pyridin-4-yl-eth-(E)-ylidene]-hydrazide]: the Ki on GRK-3 was 100 to 1000 nM; on GRK-5, over 10000 nM; at hGRK-2 it was 100 to 1000 nM.

For `C/C(=N\NC(=O)CNc1cccc(Oc2ccccc2)c1)c1ccncc1` [Example 89, (3-Phenoxy-phenylamino)-acetic acid [1-pyridin-4-yl-eth-(E)-ylidene]-hydrazide], the Ki was 100 to 1000 nM on GRK-3, over 10000 nM at GRK-5 and 100 to 1000 nM at hGRK-2.

On to `C/C(=N\NC(=O)CNc1cccc(C(=O)Nc2ccccc2)c1)c1ccncc1` [Example 90, N-Phenyl-3-{[1-pyridin-4-yl-eth-(E)-ylidene-hydrazinocarbonylmethyl]-amino}-benzamide], for which the Ki on GRK-3 was 100 to 1000 nM; at GRK-5 it was over 10000 nM; on hGRK-2 it was 100 to 1000 nM.

Take `O=C(CNc1cccc(C(=O)Nc2ccccc2)c1)N/N=C/c1c(Cl)cncc1Cl` [Example 97, 3-{[1-(3,5-Dichloro-pyridin-4-yl)-meth-(E)-ylidene-hydrazinocarbonylmethyl]-amino}-N-phenyl-benzamide]: the Ki at GRK-3 lay within 10 to 100 nM; at GRK-5 it was 1000 to 10000 nM; at hGRK-2 it was 100 to 1000 nM.

Regarding `O=C(CNc1cccc(C(=O)Nc2ccccc2)c1)N/N=C/c1c(Cl)cncc1Cl` [drawing 112], the “PTM Cell Assay Result” value in assay [1] is on record as “++”.

Consider `O=C(CNc1cccc(C(=O)Nc2ccccc2)c1)N/N=C/c1ccncc1` [drawing 113], for which, in assay [1], the “PTM Cell Assay Result” value is listed as “++”.

As for `O=C(CNc1cccc(C(=O)Nc2cccnc2)c1)N/N=C/c1ccncc1` [drawing 114], in assay [1], the “PTM Cell Assay Result” value is on record as “++”.

Turning to `O=C(CNc1cccc(C(=O)NCCN2CCOCC2)c1)N/N=C/c1c(Cl)cncc1Cl` [drawing 116], in assay [1], the “PTM Cell Assay Result” value is given as “+”.

`CNC(=O)c1cccc(NCC(=O)N/N=C/c2c(Cl)cncc2Cl)c1` [drawing 118]: in assay [1], the “PTM Cell Assay Result” value is “+”.

As to `C/C(=N\NC(=O)CNc1cccc(C(=O)Nc2ccccc2)c1)c1ccncc1` [drawing 119], the “PTM Cell Assay Result” value in assay [1] is given as “+”.
